Patent US12227496B2 (BRISTOL-MYERS SQUIBB COMPANY, priority 2019, dated 2025)

Biological target: T1, human FXR (Homo sapiens, UniProt Q96RI1)
T1 construct: expressed in transfected cells; host or cells: HEK293 cells stably carrying a 5xGal4-response-element firefly luciferase reporter, transiently transfected with pcDNA3.1-Gal4-FXR
T1 sequence (Q96RI1 262-486 limits assumed): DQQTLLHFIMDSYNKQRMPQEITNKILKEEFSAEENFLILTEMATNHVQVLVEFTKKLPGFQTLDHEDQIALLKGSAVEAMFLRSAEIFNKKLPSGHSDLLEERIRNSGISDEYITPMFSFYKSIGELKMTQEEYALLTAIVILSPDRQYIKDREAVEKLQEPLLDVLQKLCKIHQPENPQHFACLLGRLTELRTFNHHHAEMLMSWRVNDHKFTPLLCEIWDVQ
Assay: transient human FXR/Gal4-luciferase reporter assay
Type: cell-based
Conditions: Gal4-hFXR LBD fusion, luciferase reporter in HEK293 cells; response relative to 8 μM GW-4064
Procedure, shortened: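 HEK293 cells stably carrying a 5×Gal4-response-element firefly luciferase reporter were transiently transfected with Gal4-hFXR. They were then incubated overnight at 37 °C with compound serial dilutions in medium containing 10% charcoal/dextran-stripped FBS. Luminescence was read after Steady-Glo addition.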

SMILES | EC50 [nM]
COc1cc(-c2cccc(N(CC34CCC(c5nnc(C)s5)(CC3)CC4)C(=O)C3CCOCC3)c2)ccn1 [Example 81, N-(3-(2-methoxypyridin-4-yl)phenyl)-N-((4-(5-methyl-1,3,4-thiadiazol-2-yl)bicyclo[2.2.2]octan-1-yl)methyl)tetrahydro-2H-pyran-4-carboxamide] | 2500
CCCc1ncc(-c2cccc(N(CC34CCC(c5nc(C6CC6)no5)(CC3)CC4)C(=O)C3CCCOC3)c2)o1 (racemic) [Example 30, N-((4-(3-cyclopropyl-1,2,4-oxadiazol-5-yl)bicyclo[2.2.2]octan-1-yl)methyl)-N-(3-(2-propyloxazol-5-yl)phenyl)tetrahydro-2H-pyran-3-carboxamide] | 145
O=C(C1CCOCC1)N(CC12CCC(c3nc(C4CC4)no3)(CC1)CC2)c1cccc(-c2cnc(C3CC3)o2)c1 [Example 23, N-((4-(3-cyclopropyl-1,2,4-oxadiazol-5-yl)bicyclo[2.2.2]octan-1-yl)methyl)-N-(3-(2-cyclopropyloxazol-5-yl)phenyl)tetrahydro-2H-pyran-4-carboxamide] | 74
CC(C)(C)c1nc(C23CCC(CN(C(=O)C4CCOCC4)c4cccc(-c5ccc(OC(F)F)cc5)c4)(CC2)CC3)no1 [Example 89, N-((4-(5-(tert-butyl)-1,2,4-oxadiazol-3-yl)bicyclo[2.2.2]octan-1-yl)methyl)-N-(4′-(difluoromethoxy)-[1,1′-biphenyl]-3-yl)tetrahydro-2H-pyran-4-carboxamide] | 96
CC(F)(F)c1nc(C23CCC(CN(C(=O)C4CCC(F)(F)CC4)c4ccc(F)c(-c5ccc(S(C)(=O)=O)cc5)c4)(CC2)CC3)no1 [Example 107, N-((4-(5-(1,1-difluoroethyl)-1,2,4-oxadiazol-3-yl)bicyclo[2.2.2]octan-1-yl)methyl)-4,4-difluoro-N-(6-fluoro-4′-(methylsulfonyl)-[1,1′-biphenyl]-3-yl)cyclohexane-1-carboxamide] | 1020
CCOc1ccc(-c2cccc(N(CC34CCC(c5nc(C(C)(C)C)no5)(CC3)CC4)C(=O)C3CCC(OC)CC3)c2)cc1 (single isomer, unassigned) [Example 146, N-((4-(3-(tert-butyl)-1,2,4-oxadiazol-5-yl)bicyclo[2.2.2]octan-1-yl)methyl)-N-(4′-ethoxy-[1,1′-biphenyl]-3-yl)-4-methoxycyclohexane-1-carboxamide] | 402
CCOc1ncc(-c2cccc(N(CC34CCC(c5noc(C(C)(C)F)n5)(CC3)CC4)C(=O)c3ccc(OC(F)F)cc3)c2)cn1 [Example 144, 4-(difluoromethoxy)-N-(3-(2-ethoxypyrimidin-5-yl)phenyl)-N-((4-(5-(2-fluoropropan-2-yl)-1,2,4-oxadiazol-3-yl)bicyclo[2.2.2]octan-1-yl)methyl)benzamide] | 334
Cc1cnc(C23CCC(CN(C(=O)C4CCCCC4)c4cccc(-c5nc(C6CC6)no5)c4)(CC2)CC3)o1 [Example 35, N-(3-(3-cyclopropyl-1,2,4-oxadiazol-5-yl)phenyl)-N-((4-(5-methyloxazol-2-yl)bicyclo[2.2.2]octan-1-yl)methyl)cyclohexanecarboxamide] | 515
CN1CCC(C(=O)N(CC23CCC(c4cc(C5CC5)nn4C)(CC2)CC3)c2cccc(-c3ccc(S(C)(=O)=O)cc3)c2)CC1 [Example 136, N-((4-(3-cyclopropyl-1-methyl-1H-pyrazol-5-yl)bicyclo[2.2.2]octan-1-yl)methyl)-1-methyl-N-(4′-(methylsulfonyl)-[1,1′-biphenyl]-3-yl)piperidine-4-carboxamide] | 4000
Cn1nc(-c2cccc(N(CC34CCC(c5nc(C6CC6)no5)(CC3)CC4)C(=O)C3CCOCC3)c2)cc1C1CC1 [Example 50, N-((4-(3-cyclopropyl-1,2,4-oxadiazol-5-yl)bicyclo[2.2.2]octan-1-yl)methyl)-N-(3-(5-cyclopropyl-1-methyl-1H-pyrazol-3-yl)phenyl)tetrahydro-2H-pyran-4-carboxamide] | 334
Cn1nc(C23CCC(CN(C(=O)C4CCCOC4)c4cccc(-c5nc(C6CC6)no5)c4)(CC2)CC3)cc1C1CC1 (racemic) [Example 67, N-(3-(3-cyclopropyl-1,2,4-oxadiazol-5-yl)phenyl)-N-((4-(5-cyclopropyl-1-methyl-1H-pyrazol-3-yl)bicyclo[2.2.2]octan-1-yl)methyl)tetrahydro-2H-pyran-3-carboxamide] | 256
CC(F)(F)c1nc(C23CCC(CN(C(=O)C4CCOCC4)c4cccc(-c5cc(C6CC6)on5)c4)(CC2)CC3)no1 [Example 156, N-(3-(5-cyclopropylisoxazol-3-yl)phenyl)-N-((4-(5-(1,1-difluoroethyl)-1,2,4-oxadiazol-3-yl)bicyclo[2.2.2]octan-1-yl)methyl)tetrahydro-2H-pyran-4-carboxamide] | 44
O=C(C1CCS(=O)(=O)CC1)N(CC12CCC(c3nc(C4CC4)no3)(CC1)CC2)c1cccc(-c2nc(C3CC3)no2)c1 [Example 18, N-((4-(3-cyclopropyl-1,2,4-oxadiazol-5-yl)bicyclo[2.2.2]octan-1-yl)methyl)-N-(3-(3-cyclopropyl-1,2,4-oxadiazol-5-yl)phenyl)tetrahydro-2H-thiopyran-4-carboxamide 1,1-dioxide] | 1170
O=C(C1CCOCC1)N(CC12CCC(c3nc(C4CC4)no3)(CC1)CC2)c1cccc(-c2cc(C3CC3)on2)c1 [Example 40, N-((4-(3-cyclopropyl-1,2,4-oxadiazol-5-yl)bicyclo[2.2.2]octan-1-yl)methyl)-N-(3-(5-cyclopropylisoxazol-3-yl)phenyl)tetrahydro-2h-pyran-4-carboxamide] | 78
COc1cc(-c2cccc(N(CC34CCC(c5nc(C6CC6)no5)(CC3)CC4)C(=O)C3CCCCC3)c2)ccn1 [Example 75, N-((4-(3-cyclopropyl-1,2,4-oxadiazol-5-yl)bicyclo[2.2.2]octan-1-yl)methyl)-N-(3-(2-methoxypyridin-4-yl)phenyl)cyclohexane carboxamide] | 129
COCc1nc(-c2cccc(N(CC34CCC(c5nc(C6CC6)no5)(CC3)CC4)C(=O)C3CCOCC3)c2)cs1 [Example 47, N-((4-(3-cyclopropyl-1,2,4-oxadiazol-5-yl)bicyclo[2.2.2]octan-1-yl)methyl)-N-(3-(2-(methoxymethyl)thiazol-4-yl)phenyl)tetrahydro-2H-pyran-4-carboxamide] | 121
Cc1noc(-c2cccc(N(CC34CCC(c5nc(C)no5)(CC3)CC4)C(=O)C3CCCCC3)c2)n1 [Example 1, N-((4-(3-methyl-1,2,4-oxadiazol-5-yl)bicyclo[2.2.2]octan-1-yl)methyl)-N-(3-(3-methyl-1,2,4-oxadiazol-5-yl)phenyl)cyclohexanecarboxamide] | 736
CCc1noc(-c2cccc(N(CC34CCC(c5nc(C6CC6)no5)(CC3)CC4)C(=O)C3CCC(F)(F)CC3)c2)n1 [Example 5, N-((4-(3-cyclopropyl-1,2,4-oxadiazol-5-yl)bicyclo[2.2.2]octan-1-yl)methyl)-N-(3-(3-ethyl-1,2,4-oxadiazol-5-yl)phenyl)-4,4-difluorocyclohexane-1-carboxamide] | 799
O=C(C1CCOCC1)N(CC12CCC(c3nc(C4CC4)no3)(CC1)CC2)c1cccc(-c2nnc(C3CC3)o2)c1 [Example 54, N-((4-(3-cyclopropyl-1,2,4-oxadiazol-5-yl)bicyclo[2.2.2]octan-1-yl)methyl)-N-(3-(5-cyclopropyl-1,3,4-oxadiazol-2-yl)phenyl)tetrahydro-2H-pyran-4-carboxamide] | 373
